Results published in patent US20260207759A1, “COMPOSITION OF CD40-BINDING MOLECULE AND PHARMACEUTICAL USE THEREOF” (SUZHOU SUNCADIA BIOPHARMACEUTICALS CO., LTD., priority 2022, published 2026).

Assays:
[1] = test system: human CD40 transgenic mice; test: Mouse skin graft rejection model (anti-CD40-ADC); type: in vivo; conditions: 10 mpk ip, budesonide 0.12 mg/kg QD, dexamethasone 20 mpk QD
Source text: Male Balb/c mice, 6 weeks old, were purchased from the Laboratory Animal Management Department, Shanghai Institute of Planned Parenthood Research.
(§1) On day −2 of the experiment, the mice were intraperitoneally injected with the CD40 antagonistic antibody, anti-CD40-ADC, or glucocorticoid. On day 0 of the experiment, donor Balb/c mice and C57BL6/J mice were anesthetized with 4% chloral hydrate. The tails of the donor mice were removed, and full circles of skin, 1 cm in length, were isolated from the tails. The hair on the acceptor mice's back was removed, and an incision was made along the skin layer. An equal area of skin was removed while preserving the back fat and connective tissue. The donor skin was placed on the acceptor mice's incision site, and the incision was closed with glue. The mice were then placed back in cages to recover.
The mice were dosed according to the administration regimens in Table 27. After 7 days of recovery, the mouse skin survival was observed daily and rejection scores were recorded.

[2] = test system: human CD40 transgenic mice; test: Mouse skin graft rejection model (antibodies, tacrolimus combination); type: in vivo; conditions: FK506 3 mpk, alone or combined
Source text: Male Balb/c mice, 6 weeks old, were purchased from the Laboratory Animal Management Department, Shanghai Institute of Planned Parenthood Research. Housing environment: SPF; certification number: 20180006023393.
as §1, with “On day-2” for “On day −2”, “with tacrolimus FK506 or” for “with the”, “antagonistic antibodies.” for “antagonistic antibody, anti-CD40-ADC, or glucocorticoid.”
The mice were dosed according to the administration regimens in Table 16. After 7 days of recovery, the mouse skin survival was observed daily and rejection scores were recorded.

SMILES | Skin graft survival rate (%), 10 days [1] [%] | Skin graft survival rate (%), 15 days [1] [%] | Skin graft survival rate (%), 20 days [1] [%] | Skin graft score, 10 days ([1]; score 3 to 0) | Skin graft score, 15 days ([1]; score 3 to 0) | Skin graft score, 20 days ([1]; score 3 to 0) | Day-15 skin graft survival rate (%) ([2]; Table 20: antibody 10 mpk) | Skin graft score, 8 days ([2]; Table 22: 2F12-L4H2 10 mpk) | Skin graft score, 10 days ([2]; Table 22: 2F12-L4H2 10 mpk) | Skin graft score, 15 days ([2]; Table 22: 2F12-L4H2 10 mpk) | Skin graft score, 20 days ([2]; Table 22: 2F12-L4H2 10 mpk)
C[C@@H]1C[C@H]2[C@@H]3CCC4=CC(=O)C=C[C@]4(C)[C@@]3(F)[C@@H](O)C[C@]2(C)[C@@]1(O)C(=O)CO [Dexamethasone] | 88.9 | 88.9 | 66.7 | 2.33 | 2 | 1.56 |  |  |  |  | 
C=CC[C@@H]1/C=C(\C)C[C@H](C)C[C@H](OC)[C@H]2O[C@@](O)(C(=O)C(=O)N3CCCC[C@H]3C(=O)O[C@H](/C(C)=C/[C@@H]3CC[C@@H](O)[C@H](OC)C3)[C@H](C)[C@@H](O)CC1=O)[C@H](C)C[C@@H]2OC [FK506, tacrolimus] |  |  |  |  |  |  | 16.7 | 2.5 | 1.5 | 0.5 | 0
